The source of these data is PMC12040169 (PLOS Biology, 2025).

The data set in a line: in vitro. The conditions noted are these: human, hela cells, % viability.

Molecules are shown by their SMILES.

For `COc1ccc(Nc2ncnc3oc(C)c(C)c23)cc1` [CBK288163], the viability at 28.5 h, 10 µM amounted to 93.3%. On the same count and under the same terms, under `Cc1cc(C)nc(NC(=O)c2cccc(Cl)c2)n1` [CBK288165] stands 90%; under `Cc1ccc(C2CC(=O)c3cnc(N)nc3C2)cc1` (centres unmarked) [CBK288166], 92%. The same measure, in the same setting: under `Cc1cc(C)nc(Nc2n[nH]c(-c3ccccc3Cl)n2)n1` [CBK288167] stands 98.2%; under `Nc1n[nH]c2nc(-c3ccccc3)c3c(c12)CCC3` [CBK288178], 88.8%; under `COc1cc2c(=O)n(C)c3nncn3c2cc1OC` [CBK288182], 98.1%. Same read-out and setting: under `Nc1nc(COc2ccc(F)cc2)nc(N2CCOCC2)n1` [CBK288183] stands 91.5%; under `C=C(C)Cn1c(=O)c2c(nc3[nH]c(C)c(C)n32)n(C)c1=O` [CBK288184], 102%; under `Cc1cc(C)n(C(=O)c2cn3cc(Cl)ccc3n2)n1` [CBK288185], 98.6%.

`COc1ccc(-c2c(C)nc(N)nc2-c2ccc(OC)cc2O)cc1` [CBK288186]: the viability at 28.5 h, 10 µM amounted to 85.7%. Still for that read-out and setting: under `Cc1cc(C)c2c(N)c(-c3ccncc3)sc2n1` [CBK288189] stands 88.7%. The same measure, in the same setting: to `Cc1sc2ncn(CCC(=O)O)c(=O)c2c1C` [CBK288191] belongs 115%; to `c1ccc(COc2ccc(-n3cnnn3)cc2)nc1` [CBK288196], 83.5%. Still for that read-out and setting: to `Fc1cccc(COc2nc3ccccc3n3nnnc23)c1` [CBK288198] belongs 114%; to `Cc1ccc(-c2c(N3C(=O)c4cccnc4C3=O)n[nH]c2C)cc1` [CBK288199], 101%.

As to `CC(=O)Nc1nc2[nH]c(C)c(Cc3ccccc3)c(=O)n2n1` [CBK288202], the viability at 28.5 h, 10 µM amounted to 89%. Same read-out and setting: under `CC(C)(C)C(=O)/N=c1/[nH]nc(-c2cccnc2)s1` [CBK288203] stands 98.3%; under `Cc1ccc(C(=O)N2CCn3c2nc2ccccc23)cc1` [CBK288204], 108%. Still for that read-out and setting: under `COc1cc2c(c(OC)c1OC)C(c1ccccc1C)CC(=O)N2` (centres unmarked) [CBK288205] stands 109%; under `CC(Oc1ccc(Cl)cc1)C(=O)Nc1ncccn1` (centres unmarked) [CBK288206], 96.5%; under `Cc1noc2nc(-c3cccnc3)cc(C(=O)O)c12` [CBK288207], 92.4%. Still for that read-out and setting: under `O=C(CC12CC3CC(CC(C3)C1)C2)Nc1nc[nH]n1` [CBK288208] stands 117%; under `CC(C)c1cc2c(s1)NC(c1ccccc1)NC2=O` (centres unmarked) [CBK288209], 92.9%. As for `O=C(Nc1nc2ccccc2[nH]1)NC1CCCCC1` [CBK288210], the viability at 28.5 h, 10 µM is 86.1%. As for `O=C(CSc1ccccc1)Nc1nccs1` [CBK288213], the viability at 28.5 h, 10 µM amounted to 109%. With `CCn1nc(C)c(C2NC(=O)c3ccccc3N2)c1C` (centres unmarked) [CBK288214], the viability at 28.5 h, 10 µM came out at 88.6%. Same read-out and setting: to `CCOc1cc(C)c(-c2cc(N)[nH]n2)cc1OCC` [CBK288216] belongs 85.9%.

`Cc1ccccc1NC(=O)c1cnn2cccnc12` [CBK288217]: the viability at 28.5 h, 10 µM amounted to 90.3%. On the same count and under the same terms, under `Cc1ccnc(SCC(=O)N2CCc3ccccc3C2)n1` [CBK288218] stands 91.7%.

`Cc1nc2n(n1)C(C(=O)Nc1ccc(C)c(C)c1)CC(=O)N2` (centres unmarked) [CBK288223]: the viability at 28.5 h, 10 µM was 105%. In the case of `COc1ccc(CCC(=O)Nc2ncn(Cc3cccc(C)c3)n2)cc1` [CBK288227], the viability at 28.5 h, 10 µM was 91.7%. As for `O=C(O)c1ccc(-n2ncc3ccccc3c2=O)cc1` [CBK288229], the viability at 28.5 h, 10 µM is 111%. On the same count and under the same terms, to `Cc1nc2n(n1)C(c1ccccn1)C1=C(CC(C)CC1=O)N2` (centres unmarked) [CBK288230] belongs 82.9%. `COc1ccc(-c2c(-c3ccc(F)cc3)[nH]c3[nH]c(=O)[nH]c(=O)c23)cc1` [CBK288232]: the viability at 28.5 h, 10 µM was 111%. The same measure, in the same setting: to `COc1ccc(CCNC(=O)c2ccn[nH]2)cc1OC` [CBK288234] belongs 92.2%. For `O=C(Nc1cccc(Cl)c1Cl)c1cnccn1` [CBK288243], the viability at 28.5 h, 10 µM amounted to 105%. As to `CCc1noc(C)c1C(=O)Nc1ncc(C)s1` [CBK288244], the viability at 28.5 h, 10 µM was 95.4%. The same measure, in the same setting: to `O=C(Nc1cccnc1)c1ccc(F)cc1Cl` [CBK288246] belongs 89.9%; to `COc1ccccc1N1CCN(C(=O)c2c(Cl)cnn2C)CC1` [CBK288247], 94.3%; to `COc1ccc(C(C)(C)C)cc1NC(=O)c1ccncc1` [CBK288248], 92%. On the same count and under the same terms, to `Cc1cnc(NC(=O)Cc2ccc(F)cc2)s1` [CBK288249] belongs 99.9%. The same measure, in the same setting: to `Cc1ccc(OC(C)C(=O)Nc2cc(C(C)(C)C)on2)cc1C` (centres unmarked) [CBK288251] belongs 107%; to `O=c1c2ccccc2n2c(=O)[nH]nc2n1-c1ccccc1` [CBK288352], 104%. Turning to `COc1cc2c(cc1OC)C1=NNC(=O)C1=NC(C)(C)C2` [CBK288353], the viability at 28.5 h, 10 µM amounted to 22.3%. On the same count and under the same terms, under `COc1ccc(-c2cc(=O)[nH]c(=S)s2)cc1` [CBK288355] stands 90.5%; under `CSc1ccc(-c2nc(C)c(C(C)=O)n2O)cc1` [CBK288356], 92.5%.

On to `CCCCC(=O)NCCc1ccc(S(N)(=O)=O)cc1` [CBK288360], for which the viability at 28.5 h, 10 µM stood at 91.5%. On the same count and under the same terms, under `O=c1c(O)c(-c2ccc(F)cc2)oc2ccccc12` [CBK288369] stands 72.4%; under `O/N=C1\CC(c2ccccc2)Oc2ccc(Cl)cc21` (centres unmarked) [CBK288370], 91.1%; under `COc1ccc(Cc2n[nH]c(=S)n2-c2cccnc2)cc1` [CBK288373], 85.5%.

Take `CC(C)c1n[nH]c(=S)n1C1CCc2ccccc21` (centres unmarked) [CBK288374]: the viability at 28.5 h, 10 µM is 87.1%. Take `CC(Oc1cc(Cl)ccc1Cl)c1nnc(S)n1C` (centres unmarked) [CBK288376]: the viability at 28.5 h, 10 µM came to 84.8%.

With `CCC1(c2ccccc2)C(=O)NC(=O)N(CCN2CCOCC2)C1=O` (centres unmarked) [CBK288379], where the note is “bulk resorufin, single well”, the viability at 28.5 h, 10 µM came out at 88%.

Regarding `Cc1cc(C)cc(Nc2cc(C)n3c(=O)[nH]nc3n2)c1` [CBK288380], the viability at 28.5 h, 10 µM amounted to 91.8%. Turning to `Cc1cc(=O)[nH]c2c1c(=O)[nH]n2C1CCCCCC1` [CBK288381], the viability at 28.5 h, 10 µM was 80.8%. Same read-out and setting: under `FC(F)Oc1ccc(-c2ccnc(S)n2)cc1` [CBK288385] stands 91.9%; under `O=c1c2ccccc2nc(S)n1CC(O)c1ccccc1` (centres unmarked) [CBK288386], 85.8%.

Regarding `Fc1ccc(C2NC(S)=NC3=C2N2CCC3CC2)cc1` (centres unmarked) [CBK288390], the viability at 28.5 h, 10 µM turned out to be 95.4%. The same measure, in the same setting: under `SC1=NC2(CCCC2)NN1c1ccc(Cl)cc1` [CBK288391] stands 83.2%. Still for that read-out and setting: to `O=c1cc(CN2CCN(c3ccccc3)CC2)occ1O` [CBK288392] belongs 89%; to `CN1CCN(Cc2oc(CO)cc(=O)c2O)CC1` [CBK288394], 89.6%. On the same count and under the same terms, under `Cc1cc(Cl)ccc1OCCCc1nnc(S)n1C` [CBK288396] stands 85.1%. Take `CCCOC(=O)N(O)c1ccc(Cl)c(Cl)c1` [CBK288400]: the viability at 28.5 h, 10 µM is 94.4%. On the same count and under the same terms, to `O=C(O)c1cccc(Cn2c(C3CC3)n[nH]c2=S)c1` [CBK288401] belongs 87.1%; to `O=c1cc2nc(-c3ccccc3F)[nH]c(=S)n2[nH]1` [CBK288402], 95.5%.

For the molecule `O=c1nc(CNc2ccc(Br)cc2)[nH][nH]1` [CBK288403], the viability at 28.5 h, 10 µM turned out to be 86.2%.

For `NS(=O)(=O)c1ccc(CCNC(=O)C2CC2)cc1` [CBK288407], the viability at 28.5 h, 10 µM turned out to be 107%. Same read-out and setting: to `CCC(CC)Oc1ccc(C2(C)NC(=O)NC2=O)cc1` (centres unmarked) [CBK288409] belongs 96.4%; to `OCn1nc(-c2ccc(Cl)cc2Cl)oc1=S` [CBK288410], 107%. Same read-out and setting: to `Cn1c2ccccc2c2ncn(CCS)c(=O)c21` [CBK288412] belongs 114%; to `COc1cc(OC)cc(-c2[nH][nH]c(=O)c2CCN)c1` [CBK288414], 110%. Take `Cc1ccc(Cl)c(OC(=O)NCCOC(=O)NO)c1` [CBK288417]: where the note is “bulk resorufin, single well”, the viability at 28.5 h, 10 µM came to 94.3%.

For the molecule `O=C1CC(N(O)c2ccccc2)C(=O)N1c1ccc(F)cc1` (centres unmarked) [CBK288419], the viability at 28.5 h, 10 µM is 104%.

In the case of `NS(=O)(=O)c1ccc(CN2CCCC2=O)cc1` [CBK288420], the viability at 28.5 h, 10 µM worked out at 108%. `Sc1nnc(-c2ccncc2)n1C1CCCCC1` [CBK288421]: the viability at 28.5 h, 10 µM stood at 105%. The same measure, in the same setting: under `Cc1cc(S)n2nc(C)c(-c3ccccc3)c2n1` [CBK288423] stands 99%.

For `O=C(NS(=O)(=O)c1ccccc1)c1ccccc1` [CBK288429], the viability at 28.5 h, 10 µM came to 88.2%. Still for that read-out and setting: under `O=C1N(c2cccc(Cl)c2)Cc2nc(=O)[nH]n21` [CBK288430] stands 85.1%. Take `O=C(O)C(=O)N1CCN(C(=O)c2cc3ccccc3[nH]2)CC1` [CBK288433]: the viability at 28.5 h, 10 µM is 107%. Take `CN(C)CCCNC(=O)c1ccnc(/C=N/O)c1` [CBK288434]: the viability at 28.5 h, 10 µM is 101%. Still for that read-out and setting: to `O=C(CCCOc1ccc(Cl)cc1Cl)NO` [CBK288436] belongs 81.7%; to `S=C1C=C(c2ccccc2)Nc2ccccc2N1` [CBK288438], 87.2%; to `O=c1[nH]nc2c(SCc3ccccc3)nccn12` [CBK288440], 90.5%. For the molecule `CCOC(=O)N1CCN(c2cc3[nH]c(S)nc3cc2F)CC1` [CBK288444], the viability at 28.5 h, 10 µM amounted to 89.9%. On the same count and under the same terms, under `Cc1cc(S)c2cc(Br)ccc2n1` [CBK288445] stands 80.5%; under `NS(=O)(=O)c1cccnc1NCc1ccccc1` [CBK288448], 85.7%. In the case of `O=c1[nH]nc2c(S(=O)(=O)N3CCCCC3)cccn12` [CBK288450], the viability at 28.5 h, 10 µM worked out at 74.9%. On the same count and under the same terms, to `Cc1cc(C)cc(Oc2nccn3c(=O)[nH]nc23)c1` [CBK288451] belongs 89.5%; to `CCN=C(S)NS(=O)(=O)c1ccc(C)cc1` [CBK288452], 86.2%.

One may read the viability as a read-out of living cells in per cent, often relative to untreated cells.
